Patent publication EP0567613B1, “COMPOSITIONS FOR THERAPY AND PREVENTION OF CANCER” (The Government of the United States of America, as …, priority 1991, dated 1993)
Where two headings read alike, the source gives them in different places.

Experiments:
collagenase type IV = assay: Northern blot analysis in PC3 cells; format: cell-based, human; conditions: NaPA treated PC3 cells
HL-60 = assay: Granulocyte differentiation (NBT reduction, morphology) and viability by trypan blue exclusion
Protocol: The number of NBT positive cells was determined after 4 [solid bars] or 7 days [hatched bar] of treatment. […] Glutamine Starvation (Gln, < 0.06 mM) was as described (18).
The ability of cells to reduce nitroblue tetrazolium (NBT) is indicative of oxidase activity which is characteristic of the more mature forms of human bone marrow granulocytes. NBT reduction thus serves as an indicator of granulocyte differentiation. […] Glutamine starvation (Gln, < 0.06 mM) was as described. […] DON, ACV and HPA are glutamine antagonists.

Prostatic Ca LaNCoP = assay: Tumor cell growth / proliferation; format: cell-based; conditions: read-out: % Inhibition by NaPA 0.8 mg/ml
[1] = tested on: the malignant or the normal cells; assay: Cytotoxicity in tissue culture; format: cell-based; conditions: growth-inhibitory concentrations
Text: (§1) A differential effect was seen also in ras-transformed fibrosarcoma V7T, when compared to the parental non-tumorigenic N1H3T3 cells.
(§2) The concentration range found to selectively suppress malignant growth can be readily obtained in the clinical setting without causing significant side effects.

[2] = Cytotoxicity in tissue culture; format: cell-based; conditions: tissue culture; read-out: concentration at which cytotoxicity was observed
Text: as §1, §2

Astrocytoma U373 = assay: Tumor cell growth / proliferation; format: cell-based; conditions: Homo sapiens
[3] = tested on: Squamous Cancer of Head & Neck A431; assay: Tumor cell growth / proliferation; format: cell-based; conditions: Homo sapiens
Text: (§3) • # 7-10 For effective responses, the tumors may require much higher drug concentrations if used alone.

Fibrosarcoma RS485 = assay: Tumor cell growth / proliferation; format: cell-based; conditions: read-out: % Inhibition by NaPA 0.8 mg/ml
Text: as §3

Breast Cancer MCF-7 = assay: Tumor cell growth / proliferation; format: cell-based; conditions: Homo sapiens
Text: as §3

Kaposi's Sarcoma KS = assay: Tumor cell growth / proliferation; format: cell-based; conditions: read-out: % Inhibition by NaPA 0.8 mg/ml
lung adenocarcinoma H596 = assay: Tumor cell growth / proliferation; format: cell-based; conditions: Homo sapiens, NCI-H596; read-out: concentration causing about 50% inhibition of growth
[4] = tested on: Erythroleukemia K562 cells; assay: Induction of hemoglobin synthesis (benzidine staining, protein quantitation); conditions: for Benzidine Positive Cells: seven days
[5] = tested on: Prostate Adenocarcinoma PC3; assay: Tumor cell growth / proliferation; format: cell-based; conditions: Homo sapiens
Protocol: (§4) Studies of depth were performed with two androgenindependent human prostate adenocarcinoma cell lines, PC3 and DU145, established from bone and brain metastases, respectively.

DU145 = assay: Tumor cell growth / proliferation; format: cell-based; conditions: Homo sapiens
Protocol: as §4

Osteosarcoma HOS = assay: Tumor cell growth / proliferation; format: cell-based; conditions: read-out: % Inhibition by NaPA 0.8 mg/ml
Text: as §3, §1

Osteosarcoma KRIB = assay: Tumor cell growth / proliferation; format: cell-based
Text: as §3, §1

Fibrosarcoma V7T = assay: Tumor cell growth / proliferation; format: cell-based
Text: as §3, §1

HLA-A mRNA = assay: Northern blot analysis in PC3 cells; format: cell-based, human; conditions: NaPA treated PC3 cells
[6] = tested on: intracellular glutathione; assay: Induction of intracellular glutathione; format: cell-based; conditions: normal or tumor cells, depending on growth conditions
Text: It is known that intracellular glutathione plays a major role in detoxification and repair of cellular injury by chemical and physical carcinogens. […] Nontoxic agents that can induce glutathione are highly desirable since these are likely to protect cells from damage by a variety of chemical carcinogens and ionizing radiation.

PC3 cells = assay: Growth on matrigel / in vitro invasion; format: cell-based, human; conditions: 800 µg/ml for 4 days, replated on matrigel, 8 days after plating
Protocol: Pictures of controls, taken after 1 and 8 days (A and B, respectively), show the characteristic growth pattern of untreated cells, i.e., formation of net-like structures composed of actively replicating cells, which eventually degraded the matrigel and formed monolayers on the plastic surface beneath.
Results scored 6-24 hours later.
It is known that PC3 cells are invasive in vitro and metastatic in recipient athymic mice. [Albini, A. et al. A rapid in vitro assay for quantitating the invasive potential of tumor cells. Cancer Res. 47:3239-3245 (1987)]. The invasiveness of PC3 cells which is indicative of their malignant phenotype can be assessed by their ability to degrade and cross tissue barriers such as matrigel, a reconstituted basement membrane. […] In Fig. 7, pictures of controls taken after 1 and 8 days, A and B, respectively, shown the characteristic growth pattern of untreated cells, i.e., formation of net-like structures composed of actively replicating cells which eventually degraded the matrigel and formed monolayers on the plastic surface beneath. […] The formation of small noninvasive colonies on top of the matrigel is indicative of loss of malignant properties following treatment. Results of the in vitro invasion assays correlate highly with the biological behavior of cells in vivo.

[7] = tested on: premalignant 4C8 and 10T1/2 cells; assay: Prevention of 5-AzadC-induced malignant conversion in culture; format: cell-based; conditions: NaPA 0.8-1.6 mg/ml, cells exposed to 5-AzadC
Text: It is known that the treatment of premalignant 4C8 and 10T1/2 cells with carcinogens such as 5-AzadC produces malignant conversion of the respective cells. When 4C8 [Remold: et al., Cancer Research, 51:1-7 (1990)] and 10T1/2 cells were exposed to 5-AzadC, malignant conversion was evident in two days and two weeks, respectively.

Astrocytoma U87 = assay: Tumor cell growth / proliferation; format: cell-based
[8] = after seven days of NaPA treatment, or four days when combined with RA
[9] = read-out: % Inhibition by NaPA 0.8 mg/ml, 0.8 mg/ml
[10] = read-out: concentration causing about 50% inhibition of growth

For `O=C([O-])Cc1ccccc1.[Na+]` [NaPA, sodium phenylacetate], the “expression of collagenase type IV” value (collagenase type IV) was “inhibited the expression of collagenase type IV”, the “granulocyte differentiation (NBT positive cells)” value (HL-60; NaPA 0.8 and 1.6 mg/ml, 4 or 7 days) was “capable of inducing granulocyte differentiation in HL-60” and the “banded and segmented neutrophils capable of NBT” value (HL-60; [8]) was 30-40%. For the same compound, the “early stage myelocytes and metamyelocytes” value (HL-60; [8]) was 30-50%, the inhibition at 800 µg/mL (Prostatic Ca LaNCoP) was > 50% and the “toxicity of the treatment to cells” value [1] was “not toxic to either the malignant or the normal cells”. The MCC [2] was > 3000 µg/mL, the IC50 (Astrocytoma U373; U373 MG, read-out: concentration causing about 50% inhibition of growth) was 400 to 800 µg/mL and the inhibition at 800 µg/mL (Astrocytoma U373; read-out: % Inhibition by NaPA 0.8 mg/ml, U373, 0.8 mg/ml) was ≥ 50%. For the same compound, the inhibition at 800 µg/mL ([3]; A-431, read-out: % Inhibition by NaPA 0.8 mg/ml, 0.8 mg/ml) was < 30%, the IC50 ([3]; A-431, read-out: concentration causing about 50% inhibition of growth) was 1000 to 1500 µg/mL and the inhibition at 800 µg/mL (Fibrosarcoma RS485) was ≤ 30%. For the same compound, the inhibition at 800 µg/mL (Breast Cancer MCF-7; MCF7, read-out: % Inhibition by NaPA 0.8 mg/ml, MCF-7, 0.8 mg/ml) was ≤ 30%, the IC50 (Breast Cancer MCF-7; MCF7, breast tumor MCS-7, read-out: concentration causing about 50% inhibition of growth) was 1000 to 1500 µg/mL and the inhibition at 800 µg/mL (Kaposi's Sarcoma KS) was ≤ 40%. The IC50 (lung adenocarcinoma H596) was 400 to 800 µg/mL, the “hemoglobin accumulation, increase over control cells” value ([4]; 0.8 and 1.6 mg/ml) was 4-9 fold and the “Benzidine Positive Cells” value ([4]; NaPA 0.8 mg/ml) was 6.0%. The “Benzidine Positive Cells” value ([4]; NaPA 1.6 mg/ml) was 17.1%, the IC50 [5] was 600 to 800 µg/mL and the viability at 800 µg/mL ([5]; PC-3) was > 95%. The activity at 800 µg/mL ([5]; PC-3, read-out: Growth) was 59.6%, the IC50 ([5]; PC-3, read-out: concentration causing about 50% inhibition of growth) was 400 to 800 µg/mL and the inhibition at 800 µg/mL ([5]; read-out: % Inhibition by NaPA 0.8 mg/ml) was ≥ 50%. The IC50 (DU145; DU-145, growth arrest, read-out: IC50) was 600 to 800 µg/mL, the inhibition at 800 µg/mL (DU145; DU-145, read-out: % Inhibition by NaPA 0.8 mg/ml, 0.8 mg/ml) was ≥ 50% and the IC50 (DU145; DU-145, read-out: concentration causing about 50% inhibition of growth) was 400 to 800 µg/mL. For the same compound, the inhibition at 800 µg/mL (Osteosarcoma HOS) was < 20%, the inhibition at 800 µg/mL (Osteosarcoma KRIB; [9]) was ≤ 30% and the IC50 (Osteosarcoma KRIB; [10]) was 1000 to 1500 µg/mL. The inhibition at 800 µg/mL (Fibrosarcoma V7T; [9]) was ≤ 30%, the IC50 (Fibrosarcoma V7T; [10]) was 1000 to 1500 µg/mL and the “level of HLA-A mRNA” value (HLA-A mRNA) was “an increase in the level of HLA-A mRNA”. The “induction of the activity of intracellular glutathione” value [6] was 2-10 fold, the “degradation of the matrigel barrier” value (PC3 cells) was “failed to degrade the matrigel barrier” and the “appearance of the malignant phenotype (cell morphology, contact inhibition, anchorage dependent growth)” value [7] was “prevented the appearance of the malignant phenotype”. For the same compound, the IC50 (Astrocytoma U87; Homo sapiens, U-87 MG, read-out: concentration causing about 50% inhibition of growth) was 400 to 800 µg/mL and the inhibition at 800 µg/mL (Astrocytoma U87; [9]) was ≥ 50%.
